Source: paper PMC3365592 (European Journal of Medicinal Chemistry, 2012)
Where two headings read alike, the source gives them in different places.

What was measured:
5-HT1A receptors [1] = molecular target: T1, 5-HT1A receptors (Rattus norvegicus, UniProt P19327); assay: 5-HT1A receptor binding experiments
T1 sequence (P19327 1-422): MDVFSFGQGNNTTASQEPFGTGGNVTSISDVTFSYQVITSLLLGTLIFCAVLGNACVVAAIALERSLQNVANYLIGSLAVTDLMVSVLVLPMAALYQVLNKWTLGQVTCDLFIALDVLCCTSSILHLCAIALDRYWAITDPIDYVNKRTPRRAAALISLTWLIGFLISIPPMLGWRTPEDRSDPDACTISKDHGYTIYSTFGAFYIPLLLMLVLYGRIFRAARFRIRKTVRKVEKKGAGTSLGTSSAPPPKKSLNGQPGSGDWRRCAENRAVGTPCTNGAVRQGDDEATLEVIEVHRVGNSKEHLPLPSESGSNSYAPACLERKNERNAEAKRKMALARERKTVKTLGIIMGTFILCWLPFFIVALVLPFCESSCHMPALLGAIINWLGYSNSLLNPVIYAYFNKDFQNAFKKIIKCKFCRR

5-HT1A receptors [2] = molecular target: T1, 5-HT1A receptors; settings: read-out: 5-HT1A Ki ± SEM; cited from earlier work

Structure (SMILES): CC1CN(c2ccc3cc([N+](=O)[O-])ccc3n2)CCN1CCCCN1C(=O)CCCC1=O (stereo not shown) [Compound 3, 1-{4-[2-Methyl-4-(6-nitroquinolin-2-yl)piperazin-1-ylo]butyl}piperidine-2,6-dione]
- Ki (5-HT1A receptors [1]): 711 ± 21 nM

Structure (SMILES): O=C1CCCC(=O)N1CCCCN1CCN(c2ccc3cc([N+](=O)[O-])ccc3n2)CC1 [Compound 4, 1-{4-[4-(6-Nitro-quinolin-2-yl)-piperazin-1-yl]-butyl}-piperidine-2,6-dione]
- Ki (5-HT1A receptors [1]): 10600 ± 3500 nM

Structure (SMILES): O=C1CC2(CCCC2)CC(=O)N1CCCCN1CCN(c2ccc3cc([N+](=O)[O-])ccc3n2)CC1 [Compound 6, 8-{4-[4-(6-Nitro-quinolin-2-yl)-piperazin-1-yl]-butyl}-8-aza-spiro[4.5]decane-7,9-dione]
- Ki (5-HT1A receptors [1]): 1100 ± 400 nM

Structure (SMILES): CC1(C)CC(=O)N(CCCCN2CCN(c3ccc4cc([N+](=O)[O-])ccc4n3)CC2)C(=O)C1 [Compound 8, 4,4-Dimethyl-1-{4-[4-(6-nitro-quinolin-2-yl)-piperazin-1-yl]-butyl}-piperidine-2,6-dione]
- Ki (5-HT1A receptors [1]): 2100 ± 400 nM

Structure (SMILES): O=C1c2ccccc2C(=O)N1CCCCN1CCN(c2ccc3cc([N+](=O)[O-])ccc3n2)CC1 [Compound 9, 2-{4-[4-(6-Nitro-quinolin-2-yl)-piperazin-1-yl]-butyl}-isoindole-1,3-dione]
- Ki (5-HT1A receptors [1]): 59000 ± 23100 nM

Structure (SMILES): CC1(C)CC(=O)N(CCCCN2CCN(c3ccc4c(Cl)cccc4n3)CC2)C(=O)C1 [Compound 10, 1-{4-[4-(5-Chloroquinolin-2-yl)piperazin-1-yl]butyl}-4,4-di-methylopiperydine-2,6-dione]
- Ki (5-HT1A receptors [1]): 1400 ± 100 nM

Structure (SMILES): CC1CN(c2ccc3ccccc3n2)CCN1CCCCN1C(=O)c2ccccc2C1=O (stereo not shown) [Compound 12]
- Ki (5-HT1A receptors [2]): 13 nM

Structure (SMILES): O=C1c2ccccc2C(=O)N1CCCCN1CCN(c2ccc3ccccc3n2)CC1 [Compound 13]
- Ki (5-HT1A receptors [2]): 39 nM

Structure (SMILES): CC1CN(c2ccc3ccccc3n2)CCN1CCCN1C(=O)c2ccccc2C1=O (stereo not shown) [Compound 14]
- Ki (5-HT1A receptors [2]): 275 nM

Structure (SMILES): CC1CN(c2ccc3ccccc3n2)CCN1CCCCN1C(=O)CCCC1=O (stereo not shown) [Compound 15]
- Ki (5-HT1A receptors [2]): 37 ± 6 nM

Structure (SMILES): CC1CN(c2ccc3ccccc3n2)CCN1CCCCN1C(=O)CC2(CCCC2)CC1=O (stereo not shown) [Compound 16]
- Ki (5-HT1A receptors [2]): 24 ± 3 nM

Structure (SMILES): CC1CN(c2ccc3ccccc3n2)CCN1CCCCN1C(=O)CC(C)(C)CC1=O (stereo not shown) [Compound 18]
- Ki (5-HT1A receptors [2]): 15 ± 3 nM

Structure (SMILES): CC1(C)CC(=O)N(CCCCN2CCN(c3ccc4ccccc4n3)CC2)C(=O)C1 [Compound 19]
- Ki (5-HT1A receptors [2]): 11 ± 2 nM
